Assay results reported in ChEMBL document CHEMBL4138236, “Trisubstituted barbiturates and thiobarbiturates: Synthesis and biological evaluation as xanthine oxidase inhibitors, antioxidants, antibacterial and anti-proliferative agents” (Eur J Med Chem, 2018).

How the values were obtained:
[1] = test system: Bacillus cereus; assay: Antibacterial activity against Bacillus cereus ATCC 1178 after 24 hrs by broth microdilution method; assay type: functional; details: ATCC 1178, 24 h
[2] = test system: NHDF; assay: Antiproliferative activity against NHDF at 30 uM after 72 hrs by MTT assay relative to control; assay type: cell-based; details: human
[3] = test system: Pseudomonas aeruginosa; assay: Antibacterial activity against Pseudomonas aeruginosa ATCC 27853 after 24 hrs by broth microdilution method; assay type: functional; details: ATCC 27853, 24 h
[4] = test system: MCF7; assay: Antiproliferative activity against human MCF7 cells at 30 uM after 72 hrs by MTT assay relative to control; assay type: functional
[5] = test system: Acinetobacter baumannii; assay: Antibacterial activity against Acinetobacter baumannii LMG 1025 after 24 hrs by broth microdilution method; assay type: functional; details: LMG 1025, 24 h
[6] = test system: Escherichia coli; assay: Antibacterial activity against Escherichia coli ATCC 25922 after 24 hrs by broth microdilution method; assay type: functional; details: ATCC 25922, 24 h
[7] = test system: Salmonella typhimurium; assay: Antibacterial activity against Salmonella typhimurium ATCC 13311 after 24 hrs by broth microdilution method; assay type: functional, Salmonella enterica subsp. enterica serovar Typhimurium; details: Salmonella enterica, ATCC 13311, 24 h
[8] = test system: Klebsiella pneumoniae; assay: Antibacterial activity against Klebsiella pneumoniae ATCC 13883 after 24 hrs by broth microdilution method; assay type: functional; details: ATCC 13883, 24 h
[9] = test system: Staphylococcus aureus; assay: Antibacterial activity against Staphylococcus aureus ATCC 25923 after 24 hrs by broth microdilution method; assay type: functional; details: ATCC 25923, 24 h
[10] = Antioxidant activity assessed as DPPH radical scavenging activity at 30 uM after 60 mins by spectrophotometric method relative to control; assay type: functional
[11] = Antioxidant activity assessed as DPPH radical scavenging activity at 30 uM after 20 mins by spectrophotometric method relative to control; assay type: functional

| Compound | MIC [1] [µM] | Activity [2] [%] | MIC [3] [µM] | Activity [4] [%] | MIC [5] [µM] | MIC [6] [µM] | MIC [7] [µM] | MIC [8] [µM] | MIC [9] [µM] | Activity [10] [%] | Activity [11] [%] |
| --- | --- | --- | --- | --- | --- | --- | --- | --- | --- | --- | --- |
| CN1C(=O)C(=CNc2cc([N+](=O)[O-])ccc2Cl)C(=O)N(C)C1=O | > 200 | 66.98 | > 200 | 50.07 | > 200 | > 200 | > 200 | > 200 | > 200 | 0 | -0.82 |
| Oc1ncnc2[nH]ncc12 [ALLOPURINOL] | – | – | – | – | – | – | – | – | – | -5.41 | -6.02 |
| NC(=O)NC=C1C(=O)NC(=S)NC1=O | > 200 | 74.57 | > 200 | 104.66 | > 200 | > 200 | > 200 | > 200 | > 200 | 5.6 | 5.26 |
| COc1ccc(CC2C(=O)NC(=O)NC2=O)cc1 | > 200 | 60.77 | > 200 | 73.12 | > 200 | > 200 | > 200 | > 200 | > 200 | 14 | 10.4 |
| COc1ccc(C=C2C(=O)NC(=O)NC2=O)cc1 | > 200 | 71.59 | > 200 | 78.75 | > 200 | > 200 | > 200 | > 200 | > 200 | 2.63 | -0.97 |
| CC(NNc1ccc([N+](=O)[O-])cc1[N+](=O)[O-])=C1C(=O)NC(=O)NC1=O | > 200 | 79.47 | > 200 | 50.01 | > 200 | > 200 | > 200 | > 200 | > 200 | 18.1 | 17.6 |
| NC(=O)NC=C1C(=O)NC(=O)NC1=O | > 200 | 78.89 | > 200 | 55.71 | > 200 | > 200 | > 200 | > 200 | > 200 | -5.32 | -5.19 |
| NC(=S)NC=C1C(=O)N(c2ccccc2)C(=S)N(c2ccccc2)C1=O | > 200 | 95.17 | > 200 | 90.04 | > 200 | > 200 | > 200 | > 200 | > 200 | 32 | 23.1 |
| Cn1c([O-])c(C(C#N)c2ccc(Br)cc2)c(=O)n(C)c1=O.[Na+] (stereo not drawn) | > 200 | 80.09 | > 200 | 79.47 | > 200 | > 200 | > 200 | > 200 | > 200 | 1.2 | 0.45 |
| NC(=S)NC=C1C(=O)NC(=S)NC1=O | > 200 | 83.56 | > 200 | 111.15 | > 200 | > 200 | > 200 | > 200 | > 200 | 4.18 | 3.37 |
| CC(NN)=C1C(=O)N(c2ccccc2)C(=S)N(c2ccccc2)C1=O | > 200 | 86.68 | > 200 | 99.93 | > 200 | > 200 | > 200 | > 200 | > 200 | 41.9 | 31.3 |
| O=C1NC(=S)NC(=O)C1=CNc1ccccc1Cl | > 200 | 65.67 | > 200 | 47.17 | > 200 | > 200 | > 200 | > 200 | > 200 | 0.92 | 1.12 |
| CN1C(=O)C(=CNC(N)=O)C(=O)N(C)C1=O | > 200 | 86.84 | > 200 | 97.13 | > 200 | > 200 | > 200 | > 200 | > 200 | 2.91 | 2.1 |
| O=C1NC(=S)NC(=O)C1=Cc1ccccc1[N+](=O)[O-] | > 200 | 81.31 | > 200 | 56.35 | > 200 | > 200 | > 200 | > 200 | > 200 | -0.23 | -2.2 |
| O=C1NC(=S)NC(=O)C1=CNc1cc([N+](=O)[O-])ccc1Cl | > 200 | 70.28 | > 200 | 63.7 | > 200 | > 200 | > 200 | > 200 | > 200 | -3.68 | -4.31 |
| O=C1NC(=S)NC(=O)C1=CNc1ccccc1C(=O)O | > 200 | 79.11 | > 200 | 42.53 | > 200 | > 200 | > 200 | > 200 | > 200 | -0.57 | -0.56 |
| CC(NNc1ccc([N+](=O)[O-])cc1[N+](=O)[O-])=C1C(=O)N(C)C(=O)N(C)C1=O | > 200 | 73.63 | > 200 | 69.95 | > 200 | > 200 | > 200 | > 200 | > 200 | 26.7 | 28 |
| O=C1NC(=S)NC(=O)C1=CNc1ccccc1[N+](=O)[O-] | > 200 | 78.75 | > 200 | 80.23 | > 200 | > 200 | > 200 | > 200 | > 200 | -11.8 | -12.5 |
| O=C(O)c1ccccc1NC=C1C(=O)N(c2ccccc2)C(=S)N(c2ccccc2)C1=O | > 200 | 82.24 | > 200 | 43.11 | > 200 | > 200 | > 200 | > 200 | > 200 | -2.27 | -2.45 |
| CN1C(=O)C(=Cc2ccccc2[N+](=O)[O-])C(=O)N(C)C1=O | > 200 | 79.11 | > 200 | 54.64 | > 200 | > 200 | > 200 | > 200 | > 200 | -1.77 | -0.8 |
| CC(=O)C1C(=O)NC(=O)NC1=O | > 200 | 124.84 | > 200 | 80.64 | > 200 | > 200 | > 200 | > 200 | > 200 | -7.28 | -6.91 |
| O=C1NC(=O)C(=Cc2ccccc2[N+](=O)[O-])C(=O)N1 | > 200 | 72.88 | > 200 | 58.88 | > 200 | > 200 | > 200 | > 200 | > 200 | -0.78 | -0.9 |
